Entries after “also recorded” stand apart in the source; their conditions may differ. Like-named read-outs stand apart in the source and are kept apart here.
Tested on: bacteria, fungi, and/or yeasts
Format: binding
[1] = microorganism(s) listed as target(s) of the targeting peptide, wrapped target lists given cell by cell
[2] = microorganism(s) the targeting peptide binds, as listed in Table 2
[3] = microorganism(s) that the targeting peptide binds, as listed in Table 2

## 1T-272 (QLAPIDKQLKAVKKIAFYESESTAAKAVTVA)
[1]
  Target(s): F. nucleatum, S. mutans, S. oralis,; also recorded: S. sanguinis

## PF-056 (AEQLFGKQKQRGVDLFLNRLTIILSILFFVLMICISYLGM)
[1]
  Target(s): S. epidermidis, M. luteus, P. mirabilis,; also recorded: E. coli, P. aeruginosa,; also recorded: C. albicans, MRSA, S. pneumoniae,; also recorded: E. faecalis, C. jeikeium

## 1T-207 (SPLEKYGTGSMTALTFLLGCCLLVLSKKSR)
[2]
  Target(s): F. nucleatum, S. sanguinis

## 1T-37 (YIVGALVILAVAGLIYSMLRKA)
[2]
  Target(s): S. mutans, S. aereus, S. epidermidis,; also recorded: C. jeikeium, C. xerosis,; also recorded: C. striatum, P. aeruginosa

## PF-636 (LVRLA)
[1]
  Target(s): C. albicans hyphae

## PF-C069 (NALMLREMQLAKNIKVEVTDVLSNKKYC)
[3]
  Target(s): A. naeslundii, F. nucleatum, P. gingivalis,; also recorded: S. mutans, T. denticola

## 1T-69 (ILSQEADRKKLF)
[2]
  Target(s): S. mutans, P. aeruginosa

## 1T-6 (KFINGVLSQFVLERK)
[2]
  Target(s): S. mutans

## PF-C160 (AASGFTYCASNGVWHPY)
[3]
  Target(s): F. nucleatum

## 1T-176 (PVGDIMSGFLRGANQPRFLLDHISFGS)
[2]
  Target(s): A. naeslundii, P. gingivalis, S. epidermidis,; also recorded: S. gordonii, S. mitis,; also recorded: S. mutans, S. oralis, S. salivarious,; also recorded: S. sanguinis

## 1T-295 (KYKLKKIIL)
[1]
  Target(s): S. mitis, S. salivarious, S. sanguinis

## PF-C093 (EKLGTMV)
[3]
  Target(s): A. naeslundii, F. nucleatum, S. mutans

## 1T-261 (SFEKNKIENNLKIAQAYIYIKPKPRICQA)
[1]
  Target(s): F. nucleatum, S. mutans, S. oralis,; also recorded: S. sanguinis

## PF-U (TFFRLFNRSFTQALGK)
[3]
  Target(s): S. mutans

## PF-070 (SMVKSEIVDLLNGEDNDD)
[1]
  Target(s): S. epidermidis, C. jejuni

## TT-306 (KILNEAEGKLLKVIEKNGEIDIEEI)
[1]
  Target(s): F. nucleatum

## PF-631 (LIIYFSKTGNTARATRQI)
[1]
  Target(s): yeast and hyphal forms

## PF-060 (HSSHL)
[1]
  Target(s): C. albicans hyphae; also recorded: E. coli, C. albicans, C. jeikeium

## 1T-242 (KQVQNTTLIICGTVLLGILFKSYLKSQKSV)
[2]
  Target(s): F. nucleatum, S. sanguinis

## 1T-239 (ADDLLNKRLTDLIMENAETVKTIDLDNSD)
[2]
  Target(s): A. naeslundii, S. gordonii, S. mitis,; also recorded: S. mutans, S. oralis, S. sanguinis

## PF-002 (NDDAQ)
[1]
  Target(s): yeast and hyphal forms; also recorded: S. epidermidis, P. mirabilis, C. albicans,; also recorded: C. jeikeium, C. jejuni

## 1T-270 (VHEFDIQKILQNR)
[1]
  Target(s): F. nucleatum, S. mutans, S. oralis,; also recorded: S. sanguinis

## 1T-273 (YNEPNYKWLESYKIYKQRCEDRTGMYYTEET)
[1]
  Target(s): F. nucleatum, P. gingivalis, T. denticola,; also recorded: S. mitis, S. mutans, S. oralis

## PF-150 (EIQAKGTG)
[1]
  Target(s): S. epidermidis, MRSA

## 1T-278 (SINSSAGIQPHCLSSSFVLRTKHCFY)
[1]
  Target(s): A. naeslundii, F. nucleatum, P. gingivalis,; also recorded: S. gordonii, S. mitis,; also recorded: S. mutans, S. oralis, S. salivarious,; also recorded: S. sanguinis

## 1T-40 (QRVSLWSEVEHEFR)
[2]
  Target(s): S. mutans, P. aeruginosa

## 1T-162 (QKAKEESDRKAAVSYNGFHRVNVVSIPK)
[2]
  Target(s): A. naeslundii, F. nucleatum, P. gingivalis,; also recorded: T. denticola, S. gordonii,; also recorded: S. mitis, S. mutans, S. oralis,; also recorded: S. salivarious, S. sanguinis

## 1T-170 (AYGKVFSMDIMLSENDKLIVLRISHHSAWH)
[2]
  Target(s): P. gingivalis

## 1T-152 (YVSADESAYNHIVTDDIPLADRRIEAVQQ)
[2]
  Target(s): A. naeslundii, F. nucleatum, P. gingivalis,; also recorded: S. epidermidis, S. gordonii,; also recorded: S. mitis, S. mutans, S. oralis,; also recorded: S. salivarious, S. sanguinis

## 1T-143 (MPKRHYYKLEAKALQFGLPFAYSPIQLLK)
[2]
  Target(s): A. naeslundii, F. nucleatum, P. gingivalis,; also recorded: S. epidermidis, S. gordonii,; also recorded: S. mitis, S. mutans, S. oralis,; also recorded: S. salivarious, S. sanguinis

## 1T-160 (AQYKYINKLLN)
[2]
  Target(s): A. naeslundii, F. nucleatum, P. gingivalis,; also recorded: T. denticola, S. gordonii,; also recorded: S. mitis, S. mutans, S. oralis,; also recorded: S. salivarious, S. sanguinis

## PF-057 (TMIVISIPRFEEYMKARHKKWM)
[1]
  Target(s): S. epidermidis, M. luteus, P. mirabilis,; also recorded: E. coli, P. aeruginosa,; also recorded: C. albicans, MRSA, S. pneumoniae,; also recorded: E. faecalis, C. jeikeium,; also recorded: C. jejuni

## 1T-221 (DIGRIIGKKGRTITAIRSIVYSVPTQGKKVRLVIDEK)
[2]
  Target(s): A. naeslundii, F. nucleatum, P. gingivalis,; also recorded: S. epidermidis, S. gordonii,; also recorded: S. mitis, S. mutans, S. oralis,; also recorded: S. salivarious, S. sanguinis

## PF-101 (DPVPERQEQACACHRTAKPGK)
[1]
  Target(s): S. mutans

## PF-C098 (PETKGKVSAFVFGIVVANVIAVVYILYMLREIGIIQ)
[3]
  Target(s): A. naeslundii, F. nucleatum, P. gingivalis,; also recorded: S. mutans, T. denticola

## PF-132 (RPGDGAAEQGRSR)
[1]
  Target(s): S. epidermidis, C. jeikeium

## 1T-178 (LLASHPERLSLGVFFVYRVLHLLLENT)
[2]
  Target(s): A. naeslundii, F. nucleatum, P. gingivalis,; also recorded: S. epidermidis, S. gordonii,; also recorded: S. mitis, S. mutans, S. oralis,; also recorded: S. salivarious, S. sanguinis

## PF-S018 (GMPQIPRLRI)
[1]
  Target(s): yeast and hyphal forms
[3]
  Target(s): S. epidermidis, M. luteus, C. albicans,; also recorded: MRSA, E. faecalis, C. jeikeium,; also recorded: C. jejuni

## TT-307 (NGDKKAKEELDKWDEVIKELNIQF)
[1]
  Target(s): F. nucleatum

## 1T-110 (LAAKTAVCVGRAFM)
[2]
  Target(s): A. naeslundii, P. gingivalis, S. epidermidis,; also recorded: S. gordonii, S. mitis,; also recorded: S. mutans, S. oralis, S. sanguinis

## PF-123 (TTRPQVAEDRQLDDALKETFPASDPISP)
[1]
  Target(s): M. luteus, E. coli

## PF-C085 (KKFKIFVIINWFYHKYIILNFEENF)
[3]
  Target(s): A. naeslundii, F. nucleatum, P. gingivalis,; also recorded: S. mutans, T. denticola

## PF-031 (MPHHSTTSSRIVVPAHQSNMASTPNLSITP)
[1]
  Target(s): M. luteus, C. albicans

## PF-035 (SFYESY)
[1]
  Target(s): S. epidermidis, M. luteus, E. coli,; also recorded: C. albicans, MRSA, C. jeikeium,; also recorded: C. jejuni

## 1T-148 (IVELDDTTILERALSMLGEANA)
[2]
  Target(s): A. naeslundii, F. nucleatum, P. gingivalis,; also recorded: T. denticola, S. gordonii,; also recorded: S. mitis, S. mutans, S. oralis,; also recorded: S. salivarious, S. sanguinis

## 1T-138 (YPNEYCIFLENLSLEELKEIKAINGETLNLEEIINERKNLKD)
[2]
  Target(s): A. naeslundii, F. nucleatum, P. gingivalis,; also recorded: S. epidermidis, S. gordonii,; also recorded: S. mitis, S. mutans, S. oralis,; also recorded: S. salivarious, S. sanguinis

## 1T-71 (KIDTNQWPPNKEG)
[2]
  Target(s): P. aeruginosa

## PF-128 (GIKVVAARFEEIQFSENFDSIILA)
[1]
  Target(s): M. luteus, P. aeruginosa, E. faecalis

## 1T-158 (WENKPSPLGSIKKLQGLVYRLIGYRHFWV)
[2]
  Target(s): A. naeslundii, F. nucleatum, P. gingivalis,; also recorded: S. epidermidis, S. gordonii,; also recorded: S. mitis, S. mutans, S. oralis,; also recorded: S. salivarious, S. sanguinis

## PF-621 (PPSSFLV)
[1]
  Target(s): yeast and hyphal forms

## PF-C135 (KNTHAYLRVLRLSSLILSYQASVYPLFAYLCQQKDY)
[3]
  Target(s): A. naeslundii, F. nucleatum, P. gingivalis,; also recorded: S. mutans

## 1T-248 (IGGALNSCG)
[2]
  Target(s): S. sanguinis

## 1T-290 (IINQLNLILLRLMEILIL)
[1]
  Target(s): A. naeslundii, F. nucleatum, P. gingivalis,; also recorded: S. gordonii, S. mitis,; also recorded: S. mutans, S. oralis, S. salivarious,; also recorded: S. sanguinis

## 1T-66 (DTDCLSRAYAQRIDELDKQYAGIDKPL)
[2]
  Target(s): S. mutans, S. aureus, S. epidermidis,; also recorded: C. jeikeium, C. xerosis,; also recorded: C. striatum, P. aeruginosa

## 1T-234 (DNFYLILKMEERGKSKKTSQTRGFRAFFDIIRKKIKKEDGK)
[2]
  Target(s): A. naeslundii, F. nucleatum, P. gingivalis,; also recorded: S. epidermidis, S. gordonii,; also recorded: S. mitis, S. mutans, S. oralis,; also recorded: S. salivarious, S. sanguinis

## 1T-34 (AFWLNILLTLLGYIPGIVHAVYIIAKR)
[2]
  Target(s): S. aureus, S. epidermidis, C. jeikeium,; also recorded: C. xerosis, C. striatum,; also recorded: P. aeruginosa

## PF-S023 (MAEDERRALKRRTNRGRTRTRKRITV)
[3]
  Target(s): S. epidermidis, MRSA

## 1T-49 (SLVRIHDQQPWVTRGAFIDAARTCS)
[2]
  Target(s): S. aureus, S. epidermidis, C. jeikeium,; also recorded: P. aeruginosa

## PF-073 (CPSVTMDACALLQKFDFCNNISHFRHFFAIKQPIER)
[1]
  Target(s): S. epidermidis, M. luteus, P. aeruginosa,; also recorded: C. albicans, MRSA,; also recorded: S. pneumoniae, E. faecalis

## PF-142 (GIDRGCQAAR)
[1]
  Target(s): S. mutans

## PF-027 (HNARKYLEFISQKIDGDKLTKEDSL)
[1]
  Target(s): M. luteus, MRSA, E. faecalis, C. jejuni

## PF-139 (ALSKPAIQARTLCRRQDPP)
[1]
  Target(s): S. epidermidis, M. luteus, P. mirabilis,; also recorded: E. coli, P. aeruginosa,; also recorded: C. albicans, S. pneumoniae, E. faecalis,; also recorded: C. jeikeium, C. jejuni

## 1T-182 (LTASICRQWNDNSTPYQR)
[2]
  Target(s): A. naeslundii, F. nucleatum, P. gingivalis,; also recorded: T. denticola, S. gordonii,; also recorded: S. mitis, S. mutans, S. oralis,; also recorded: S. salivarious, S. sanguinis

## 1T-39 (FGFCVWMYQLLAGPPGPPA)
[2]
  Target(s): S. mutans, P. aeruginosa

## Rv2369c (VRQVPVDRPESRHQKPGDVPRDPRC)
[1]
  Target(s): C. albicans

## 1T-249 (VFSVLKHTTWPTRKQSWHDFISILEYSAFFALVIFIFDKLLTLGLAELLKRF)
[1]
  Target(s): F. nucleatum, S. sanguinis

## PF-042 (LLLSYFRYTGALLQSLF)
[1]
  Target(s): S. epidermidis, M. luteus, P. mirabilis,; also recorded: E. coli, P. aeruginosa,; also recorded: C. albicans, MRSA, S. pneumoniae,; also recorded: E. faecalis, C. jeikeium

## PF-063 (IAAIIVLVLFQKGLLQIFNWILIQLQ)
[1]
  Target(s): S. epidermidis, M. luteus, E. coli,; also recorded: P. aeruginosa, MRSA, S. pneumoniae,; also recorded: E. faecalis, C. jeikeium,; also recorded: C. jejuni

## 1T-304 (STAGEASRRTASEASRRTAAKLRG)
[1]
  Target(s): P. gingivalis

## 1T-173 (LFRKEDQEHVLL)
[2]
  Target(s): A. naeslundii, F. nucleatum, P. gingivalis,; also recorded: S. gordonii, S. mitis,; also recorded: S. mutans, S. oralis, S. salivarious,; also recorded: S. sanguinis

## PF-130 (LQRSDEESMPRRHEKYS)
[1]
  Target(s): E. faecalis, C. jeikeium, C. jejuni

Source: patent publication US20120003661A1, “METHODS AND DEVICES FOR THE SELECTIVE DETECTION OF MICROORGANISMS” (C3 JIAN, INC., priority 2010, published 2012)
